According to PubChem BioAssay (NCI):
Several values for one entry are separate records, joined by “and”; a condition that tells them apart may be missing. Identical values can stand only once.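 1) Cells in 96-well plates. 2) Compound, 48 h, 5 concentrations. 3) Linear interpolation between surrounding doses. 4) Unreached endpoint = highest concentration. GI50 = concentration required for 50% inhibition of growth. TGI marks complete inhibition of growth.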

Key:
Assay in all cases: DTP human tumour cell line panel, 48 h
HOP-62 NSCLC = system: HOP-62 NSCLC
MALME-3M melanoma = system: MALME-3M melanoma
RPMI-8226 leukemia = system: RPMI-8226 leukemia
IGROV1 ovarian = system: IGROV1 ovarian
MDA-MB-435 = system: MDA-MB-435
DU-145 prostate = system: DU-145 prostate
SK-MEL-28 melanoma = system: SK-MEL-28 melanoma
COLO 205 colon = system: COLO 205 colon
K-562 leukemia = system: K-562 leukemia
A549 NSCLC = system: A549 NSCLC
OVCAR-5 ovarian = system: OVCAR-5 ovarian
OVCAR-4 ovarian = system: OVCAR-4 ovarian
OVCAR-3 ovarian = system: OVCAR-3 ovarian
SF-295 CNS = system: SF-295 CNS
ACHN renal = system: ACHN renal
SR leukemia = system: SR leukemia
T-47D breast = system: T-47D breast
UACC-62 melanoma = system: UACC-62 melanoma
CAKI-1 renal = system: CAKI-1 renal
SK-OV-3 ovarian = system: SK-OV-3 ovarian
HCT-15 colon = system: HCT-15 colon
786-0 renal = system: 786-0 renal
UACC-257 melanoma = system: UACC-257 melanoma
OVCAR-8 ovarian = system: OVCAR-8 ovarian
SF-268 CNS = system: SF-268 CNS
TK-10 renal = system: TK-10 renal
CCRF-CEM leukemia = system: CCRF-CEM leukemia
SK-MEL-5 melanoma = system: SK-MEL-5 melanoma
PC-3 prostate = system: PC-3 prostate
LOX IMVI melanoma = system: LOX IMVI melanoma
HL-60(TB) leukemia = system: HL-60(TB) leukemia
M14 melanoma = system: M14 melanoma
SK-MEL-2 melanoma = system: SK-MEL-2 melanoma
MOLT-4 leukemia = system: MOLT-4 leukemia
MDA-MB-231 breast = system: MDA-MB-231 breast
HT29 colon = system: HT29 colon
NCI-H226 lung = system: NCI-H226 lung
SN12C renal = system: SN12C renal
HS 578T breast = system: HS 578T breast
SW-620 colon = system: SW-620 colon
HCC-2998 colon = system: HCC-2998 colon
BT-549 breast = system: BT-549 breast
A498 renal = system: A498 renal
SF-539 CNS = system: SF-539 CNS
NCI-H23 lung = system: NCI-H23 lung
HOP-92 NSCLC = system: HOP-92 NSCLC
KM12 colon = system: KM12 colon
NCI-H460 lung = system: NCI-H460 lung
HCT-116 colon = system: HCT-116 colon
MCF7 breast = system: MCF7 breast
NCI/ADR-RES ovarian = system: NCI/ADR-RES ovarian
UO-31 renal = system: UO-31 renal
SNB-75 CNS = system: SNB-75 CNS
SNB-19 CNS = system: SNB-19 CNS
RXF 393 renal = system: RXF 393 renal
NCI-H522 lung = system: NCI-H522 lung
U251 CNS = system: U251 CNS

SMILES: CCCCCc1c(C)[nH]c(/C=C2\N=C(c3ccc[nH]3)C=C2Oc2ccccc2)c1C
- GI50 (HOP-62 NSCLC): 32.2 nM and 27.2 nM
- TGI (HOP-62 NSCLC): 1890 nM and 1180 nM
- GI50 (MALME-3M melanoma): 42.4 nM and 28.6 nM
- TGI (MALME-3M melanoma): 204 nM and 115 nM
- GI50 (RPMI-8226 leukemia): 22.2 nM
- TGI (RPMI-8226 leukemia): 187 nM and 182 nM
- GI50 (IGROV1 ovarian): 39.1 nM and 24.4 nM
- TGI (IGROV1 ovarian): 1490 nM and 1230 nM
- GI50 (MDA-MB-435): 21.8 nM
- TGI (MDA-MB-435): 58 nM
- GI50 (DU-145 prostate): 17.7 nM
- TGI (DU-145 prostate): 129 nM and 104 nM
- GI50 (SK-MEL-28 melanoma): 39.8 nM and 21.1 nM
- TGI (SK-MEL-28 melanoma): 192 nM and 101 nM
- GI50 (COLO 205 colon): 30.5 nM
- TGI (COLO 205 colon): 193 nM and 49.2 nM
- GI50 (K-562 leukemia): 26.3 nM
- TGI (K-562 leukemia): 3410 nM
- GI50 (A549 NSCLC): 22 nM and 11.7 nM
- TGI (A549 NSCLC): 56.9 nM and 40.1 nM
- GI50 (OVCAR-5 ovarian): 26.2 nM and 10.9 nM
- TGI (OVCAR-5 ovarian): 1070 nM and 377 nM
- GI50 (OVCAR-4 ovarian): 11.3 nM
- TGI (OVCAR-4 ovarian): 265 nM and 1220 nM
- GI50 (OVCAR-3 ovarian): 19.1 nM and 12.2 nM
- TGI (OVCAR-3 ovarian): 64.2 nM and 40.4 nM
- GI50 (SF-295 CNS): 24.4 nM
- TGI (SF-295 CNS): 106 nM
- GI50 (ACHN renal): 17.3 nM
- TGI (ACHN renal): 111 nM
- GI50 (SR leukemia): 11.7 nM
- GI50 (T-47D breast): 21.1 nM and 14.7 nM
- GI50 (UACC-62 melanoma): 16.1 nM and 11.1 nM
- TGI (UACC-62 melanoma): 31.1 nM and 27.4 nM
- GI50 (CAKI-1 renal): 23.3 nM
- TGI (CAKI-1 renal): 55.8 nM and 40.4 nM
- GI50 (SK-OV-3 ovarian): 56.5 nM and 30.9 nM
- TGI (SK-OV-3 ovarian): 671 nM and 628 nM
- GI50 (HCT-15 colon): 19.6 nM
- TGI (HCT-15 colon): 79.8 nM and 41.3 nM
- GI50 (786-0 renal): 17.2 nM and 11.8 nM
- TGI (786-0 renal): 43.9 nM and 45.7 nM
- GI50 (UACC-257 melanoma): 45.4 nM and 30 nM
- TGI (UACC-257 melanoma): 354 nM and 233 nM
- GI50 (OVCAR-8 ovarian): 27.7 nM and 15 nM
- TGI (OVCAR-8 ovarian): 138 nM and 56.7 nM
- GI50 (SF-268 CNS): 23.4 nM
- TGI (SF-268 CNS): 1240 nM and 1000 nM
- GI50 (TK-10 renal): 44.6 nM and 23.4 nM
- TGI (TK-10 renal): 448 nM and 152 nM
- GI50 (CCRF-CEM leukemia): 9.49 nM
- TGI (CCRF-CEM leukemia): 1210 nM and 2160 nM
- GI50 (SK-MEL-5 melanoma): 16.7 nM and 10.9 nM
- TGI (SK-MEL-5 melanoma): 34 nM and 24 nM
- GI50 (PC-3 prostate): 30.6 nM
- TGI (PC-3 prostate): 1220 nM and 166 nM
- GI50 (LOX IMVI melanoma): 14.3 nM
- TGI (LOX IMVI melanoma): 31.2 nM
- GI50 (HL-60(TB) leukemia): 38.4 nM and 15 nM
- TGI (HL-60(TB) leukemia): 343 nM and 65.6 nM
- GI50 (M14 melanoma): 21.3 nM and 10.3 nM
- TGI (M14 melanoma): 50.4 nM and 32.2 nM
- GI50 (SK-MEL-2 melanoma): 17.9 nM and 13.9 nM
- TGI (SK-MEL-2 melanoma): 40.2 nM and 32.9 nM
- GI50 (MOLT-4 leukemia): 25.4 nM and 13 nM
- TGI (MOLT-4 leukemia): 355 nM and 78.3 nM
- GI50 (MDA-MB-231 breast): 5.56 nM
- TGI (MDA-MB-231 breast): 29.5 nM and 18.1 nM
- GI50 (HT29 colon): 22.6 nM
- TGI (HT29 colon): 1370 nM and 1300 nM
- GI50 (NCI-H226 lung): 19.1 nM and 74.5 nM
- GI50 (SN12C renal): 36.3 nM and 18 nM
- TGI (SN12C renal): 232 nM and 144 nM
- GI50 (HS 578T breast): 21.3 nM and 11.1 nM
- TGI (HS 578T breast): 92.5 nM and 48.7 nM
- GI50 (SW-620 colon): 24.8 nM
- GI50 (HCC-2998 colon): 17.1 nM
- TGI (HCC-2998 colon): 217 nM and 1000 nM
- GI50 (BT-549 breast): 40.2 nM and 28.3 nM
- TGI (BT-549 breast): 538 nM and 1050 nM
- GI50 (A498 renal): 16.1 nM and 12.7 nM
- TGI (A498 renal): 69 nM and 50.8 nM
- GI50 (SF-539 CNS): 24.2 nM and 11.3 nM
- TGI (SF-539 CNS): 85.6 nM and 38.7 nM
- GI50 (NCI-H23 lung): 29.9 nM and 16 nM
- TGI (NCI-H23 lung): 668 nM and 387 nM
- GI50 (HOP-92 NSCLC): 13.8 nM
- TGI (HOP-92 NSCLC): 57.7 nM and 32.6 nM
- GI50 (KM12 colon): 11.3 nM
- TGI (KM12 colon): 49.4 nM and 13.8 nM
- GI50 (NCI-H460 lung): 23.1 nM
- TGI (NCI-H460 lung): 1160 nM and 1050 nM
- GI50 (HCT-116 colon): 22.8 nM
- TGI (HCT-116 colon): 129 nM
- GI50 (MCF7 breast): 32.6 nM
- TGI (MCF7 breast): 442 nM and 1050 nM
- GI50 (NCI/ADR-RES ovarian): 48.6 nM and 27.8 nM
- TGI (NCI/ADR-RES ovarian): 255 nM and 174 nM
- GI50 (UO-31 renal): 25.1 nM and 10.4 nM
- TGI (UO-31 renal): 109 nM and 24 nM
- GI50 (SNB-75 CNS): 24.6 nM and 17.5 nM
- TGI (SNB-75 CNS): 71.9 nM and 55.9 nM
- GI50 (SNB-19 CNS): 58.2 nM and 38.7 nM
- TGI (SNB-19 CNS): 1460 nM and 1440 nM
- GI50 (RXF 393 renal): 17.2 nM and 12.3 nM
- TGI (RXF 393 renal): 157 nM and 54.6 nM
- GI50 (NCI-H522 lung): 18.2 nM and 18.1 nM
- TGI (NCI-H522 lung): 101 nM and 168 nM
- GI50 (U251 CNS): 19 nM
- TGI (U251 CNS): 104 nM and 27.9 nM
